Data published in patent US10485746B2, “Synergistic antibacterial effects of magnolia bark extract and L-arginine, Nα-lauroyl ethyl ester on salivary bacteria” (WM. WRIGLEY JR. COMPANY, priority 2015, dated 2019).
Values after ≈ are worked out from the molar mass of the structure shown.

Tests used:
[1] = tested on: S. salivarius (ATCC 13419); test: MIC against S. salivarius; assay type: cell-based; conditions: Streptococcus salivarius, ATCC13419; 48 hours, 37° C., turbidity <0.05 absorbance at 660 nm
Text: (§1) One method of evaluating the efficacy of LAE and MBE against salivary bacteria is by determining the minimum inhibitory concentration (MIC). One suitable method for determining MIC is described in U.S. Pat. No. 7,470,442, which is herein incorporated by reference. Briefly, chlorhexidine is used as a positive control and sterile water is used as a negative control. Methanol and Tween 80 are used as a solvent for MBE. Tween 80 is the common name for Polysorbate 80. Ninety-six-well microtiter plates are used for this study. Each well contained 5×10^5 CFU/ml of bacteria, serially diluted agents and bacterial growth medium. All bacterial cultures are incubated at 37° C. and stationary. Bacterial growth is estimated spectrophotometrically at 660 nm, after 48 hours.
(§2) S. mutans (ATCC No. 25715), S. sobrinus (ATCC 33478), S. salivarius (ATCC 13419) and F. nucleatum (ATCC No. 10953) were purchased from American Type Culture Center (ATCC, MD). S. mutans, S. sobrinus, and S. salivarius were incubated for 24 hours in Schaedler broth containing 1 ppm vitamin K and 10 ppm hemin. F. nucleatum was incubated anaerobically for 48 hrs. […]
(§3) The MIC of LAE and MBE against the four oral bacteria described supra was determined. The effectiveness of MBE and LAE on total salivary bacteria was evaluated using whole saliva. […]

[2] = tested on: total salivary bacteria (whole saliva); test: MIC and FIC Index against total salivary bacteria (whole saliva); assay type: cell-based, human
Text: as §1
For testing total salivary bacteria (whole saliva), 30 ml of saliva was collected from a minimum of 3 healthy human volunteers by chewing a standard gum base. The freshly collected saliva was vortexed briefly and directly added to nutrient broth.
A 1% (w/v) solution of MBE powder (95% magnolol, 5% honokiol, Honsea Sunshine Biotech Co., Ltd., Guangzhou, China) in 100% ethanol was prepared, and used in the current example.
LAE-CF (containing 99% pure LAE) was obtained from Vedeqsa of Barcelona, Spain, and used in the current example.
The MIC of LAE and MBE against the four oral bacteria described supra was determined. The effectiveness of MBE and LAE on total salivary bacteria was evaluated using whole saliva.
Chlorhexidine was used as a positive control and sterile water was used as a negative control. MBE was dissolved in ethanol to produce a working solution containing 1% of MBE. It was added to Shaedler broth that contained 10 ppm of Hemin, 1 ppm of Vitamin K and a minimum of 1×10^6 CFU/ml of bacterial strains. […]
Calculation of the FIC is disclosed in U.S. Pat. No. 7,074,447, which is herein incorporated by reference. Briefly, the FIC Index is calculated according to the following formula: FIC=[QA/Qa+QB/Qb] where […]

[3] = tested on: S. salivarius (ATCC 13419); test: MBC against S. salivarius; assay type: cell-based; conditions: Streptococcus salivarius, ATCC13419; kills at least 99.9% of initial inoculum
Experimental: (§4) Another method for evaluating the efficacy of LAE and MBE against salivary bacteria is by determining the minimum bactericidal concentration (MBC). One suitable method for determining MBC is described in U.S. Pat. No. 7,470,442. Briefly, the MBC is determined using the 96-well microtiter plate serial dilutions as described above for the MIC test. Serial dilutions of cultures in wells showing no visible growth are performed and 10 microliters of culture are plated in triplicate on blood agar plates. Viable colonies are scored after incubation of the plates for 48 hours at 37° C. For each test bacterium, the number of CFU/ml is determined in the initial inoculum. The MBC is defined as the lowest concentration of a test compound that killed at least 99.9% of the cells present in the initial inoculum. […] The MBC of MBE and LAE against the four oral bacteria described supra was determined using the MBC protocol set forth below. The effectiveness of MBE on total salivary bacteria was evaluated using whole saliva. The MBC was determined by serial dilutions as described above for the MIC test. […] Viable colonies were scored after incubation of the plates for 48 hours at 37° C. For each test bacterium, the number of CFU/ml was determined in the initial inoculum. […]

S. sobrinus (ATCC 33478) [4] = test: MBC against S. sobrinus; assay type: cell-based; conditions: Streptococcus sobrinus, ATCC33478; kills at least 99.9% of initial inoculum
Experimental: as §4

S. sobrinus (ATCC 33478) [5] = test: MIC against S. sobrinus; assay type: cell-based; conditions: Streptococcus sobrinus, ATCC33478; 48 hours, 37° C., turbidity <0.05 absorbance at 660 nm
Text: as §1, §2, §3

[6] = tested on: S. mutans (ATCC No. 25715); test: MIC against S. mutans; assay type: cell-based; conditions: Streptococcus mutans, ATCC25715; 48 hours, 37° C., turbidity <0.05 absorbance at 660 nm
Text: as §1, §2, §3

[7] = tested on: F. nucleatum (ATCC No. 10953); test: MBC against F. nucleatum; assay type: cell-based; conditions: Fusobacterium nucleatum, ATCC10953; kills at least 99.9% of initial inoculum
Experimental: as §4

[8] = tested on: F. nucleatum (ATCC No. 10953); test: MIC against F. nucleatum; assay type: cell-based; conditions: Fusobacterium nucleatum, ATCC10953; 48 hours, 37° C., turbidity <0.05 absorbance at 660 nm
Text: as §1, §2, §3

[9] = tested on: S. mutans (ATCC No. 25715); test: MBC against S. mutans; assay type: cell-based; conditions: Streptococcus mutans, ATCC25715; kills at least 99.9% of initial inoculum
Experimental: as §4

CCCCCCCCCCCC(=O)N[C@@H](CCCNC(=N)N)C(=O)OCC [LAE-CF, L-arginine, N^α-lauroyl ethyl ester]
MIC [1]: 6.3 µg/mL (≈ 16.4 µM) | MIC Whole Saliva ([2]; 48 hours, 37° C., turbidity <0.05 absorbance at 660 nm): 50 ppm | MIC (ppm) on total salivary bacteria, component alone ([2]; Table 3, single agent): 50 ppm | FIC ([2]; total salivary bacteria, FIC<1 synergistic, 1≤FIC≤2 additive, 2<FIC antagonistic): 1 | MBC [3]: 12.5 µg/mL (≈ 32.5 µM) | MBC (S. sobrinus (ATCC 33478) [4]): 12.5 µg/mL (≈ 32.5 µM) | MIC (S. sobrinus (ATCC 33478) [5]): 6.3 µg/mL (≈ 16.4 µM) | MIC [6]: 6.3 µg/mL (≈ 16.4 µM) | MBC [7]: 12.5 µg/mL (≈ 32.5 µM) | MIC [8]: 12.5 µg/mL (≈ 32.5 µM) | MBC [9]: 12.5 µg/mL (≈ 32.5 µM)
